Earlier results on two compounds are cited in article PMC11046985 (Neuro-Oncology Advances, 2024).

The conditions of data set [1]: daily administration, patients with brain tumors; cited from earlier work.
On the set-up of data set [2]: method as in earlier work. The note with it: erlotinib increased from 150 to 600 mg; cited from earlier work.

For `COc1cc2ncnc(Nc3ccc(F)c(Cl)c3)c2cc1OCCCN1CCOCC1` [gefitinib], the “Therapeutic levels in cerebrospinal fluid (CSF)” value in data set [1] is reported as “did not appear to reach therapeutic levels”.

On to `C#Cc1cccc(Nc2ncnc3cc(OCCOC)c(OCCOC)cc23)c1` [erlotinib], for which, in data set [2], the “Increase of area under the curve estimation in the CSF” value is listed as 24% and the “Increase of area under the curve estimation in the plasma” value is reported as 2%. Moreover, the “Therapeutic levels in cerebrospinal fluid (CSF)” value in data set [1] is reported as “did not appear to reach therapeutic levels”.
